From ChEMBL document CHEMBL4334438, “Discovery of novel glycogen synthase kinase-3α inhibitors: Structure-based virtual screening, preliminary SAR and biological evaluation for treatment of acute myeloid leukemia” (Eur J Med Chem, 2019)

Legend:
[1] = target: Activin receptor type-1-like (Homo sapiens) (UniProt P37023); experiment: Inhibition of recombinant human ALK1 (142 to end residues) assessed as residual activity at 1 uM using casein as substrate incubated for 40 mins in presence of [gamma-33ATP] by scintillation counting based radiometry assay relative to control
[2] = test system: Tyrosine-protein kinase Blk (Homo sapiens), P51451 [UNDEFINED MUTATION]; experiment: Inhibition of recombinant full length human BLK M287V mutant assessed as residual activity at 1 uM using poly(Glu, Tyr) 4:1 as substrate incubated for 40 mins in presence of [gamma-33ATP] by scintillation counting based radiometry assay relative to control
Tyrosine-protein kinase Blk (Homo sapiens), P51451 [UNDEFINED MUTATION], sequence (P51451 whole entry, looked up, stated change not applied): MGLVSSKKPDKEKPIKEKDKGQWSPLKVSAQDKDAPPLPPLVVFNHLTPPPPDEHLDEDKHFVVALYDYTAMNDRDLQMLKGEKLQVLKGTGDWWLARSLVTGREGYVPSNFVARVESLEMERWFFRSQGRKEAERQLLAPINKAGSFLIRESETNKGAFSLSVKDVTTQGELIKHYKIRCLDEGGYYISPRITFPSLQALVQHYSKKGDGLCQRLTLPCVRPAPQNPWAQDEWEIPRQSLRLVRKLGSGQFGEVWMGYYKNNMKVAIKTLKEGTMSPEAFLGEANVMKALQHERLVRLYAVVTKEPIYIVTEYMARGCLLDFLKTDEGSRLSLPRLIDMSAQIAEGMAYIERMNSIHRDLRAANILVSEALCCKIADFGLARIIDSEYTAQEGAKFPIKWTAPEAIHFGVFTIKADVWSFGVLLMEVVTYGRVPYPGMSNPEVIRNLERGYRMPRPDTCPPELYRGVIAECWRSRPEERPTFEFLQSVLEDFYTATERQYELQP

[3] = target: Protein-tyrosine kinase 6 (Homo sapiens) (UniProt Q13882); experiment: Inhibition of recombinant full length human BRK assessed as residual activity at 1 uM using poly(Glu, Tyr) 4:1 as substrate incubated for 40 mins in presence of [gamma-33ATP] by scintillation counting based radiometry assay relative to control
[4] = target: Serine/threonine-protein kinase BRSK1 (Homo sapiens) (UniProt Q8TDC3); experiment: Inhibition of recombinant human BRSK1 ( 2 to end residues) assessed as residual activity at 1 uM using KKKVSRSGLYRSPSMPENLNRPR as substrate incubated for 40 mins in presence of [gamma-33ATP] by scintillation counting based radiometry assay relative to control
[5] = test system: Serine/threonine-protein kinase B-raf (Homo sapiens), P15056 [V600E]; experiment: Inhibition of recombinant full length human B-Raf V599E mutant (416 to end residues) assessed as residual activity at 1 uM using myelin basic protein as substrate incubated for 40 mins in presence of [gamma-33ATP] by scintillation counting based radiometry assay relative to control
[6] = target: CDC7/Cyclin B1 (Homo sapiens) (UniProt P14635+O00311); experiment: Inhibition of recombinant full length human CDC7/CyclinB1 assessed as residual activity at 1 uM using Histone H1 as substrate incubated for 120 mins in presence of [gamma-33ATP] by scintillation counting based radiometry assay relative to control; format: protein-complex assay
CDC7/Cyclin B1 (Homo sapiens), sequence (O00311 whole entry, looked up): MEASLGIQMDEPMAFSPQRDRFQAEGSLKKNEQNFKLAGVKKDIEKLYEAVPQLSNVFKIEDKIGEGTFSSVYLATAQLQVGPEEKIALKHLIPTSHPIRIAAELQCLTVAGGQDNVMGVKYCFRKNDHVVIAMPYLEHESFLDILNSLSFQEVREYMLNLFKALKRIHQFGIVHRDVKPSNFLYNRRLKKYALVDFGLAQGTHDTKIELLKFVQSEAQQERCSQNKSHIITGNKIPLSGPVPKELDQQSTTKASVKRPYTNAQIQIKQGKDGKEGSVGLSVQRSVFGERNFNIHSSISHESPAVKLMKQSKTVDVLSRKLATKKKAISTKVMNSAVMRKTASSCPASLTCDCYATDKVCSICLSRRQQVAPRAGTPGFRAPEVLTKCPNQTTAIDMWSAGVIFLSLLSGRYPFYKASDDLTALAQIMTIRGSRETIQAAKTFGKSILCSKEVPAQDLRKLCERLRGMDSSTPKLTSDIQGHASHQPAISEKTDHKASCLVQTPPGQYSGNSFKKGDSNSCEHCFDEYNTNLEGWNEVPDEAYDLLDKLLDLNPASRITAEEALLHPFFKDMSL
CDC7/Cyclin B1 (Homo sapiens), sequence (P14635 whole entry, looked up): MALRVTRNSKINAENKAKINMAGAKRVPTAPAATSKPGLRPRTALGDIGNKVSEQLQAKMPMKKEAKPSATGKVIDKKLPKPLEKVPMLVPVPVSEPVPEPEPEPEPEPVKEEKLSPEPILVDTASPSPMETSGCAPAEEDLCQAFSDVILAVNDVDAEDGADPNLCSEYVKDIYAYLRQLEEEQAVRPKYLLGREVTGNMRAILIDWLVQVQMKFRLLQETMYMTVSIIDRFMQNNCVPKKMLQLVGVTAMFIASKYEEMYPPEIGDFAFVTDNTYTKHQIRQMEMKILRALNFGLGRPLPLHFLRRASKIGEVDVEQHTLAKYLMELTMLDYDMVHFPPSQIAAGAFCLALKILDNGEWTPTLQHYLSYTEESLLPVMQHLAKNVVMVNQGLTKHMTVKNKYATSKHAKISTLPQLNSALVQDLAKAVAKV

[7] = target: Dual specificity protein kinase CLK3 (Homo sapiens) (UniProt P49761); experiment: Inhibition of recombinant full length human CLK3 assessed as residual activity at 1 uM using ERMRPRKRQGSVR as substrate incubated 40 mins in presence of [gamma-33ATP] by scintillation counting based radiometry assay relative to control
[8] = target: Dual specificity tyrosine-phosphorylation-regulated kinase 1A (Homo sapiens) (UniProt Q13627); experiment: Inhibition of recombinant human DYRK1A assessed as residual activity at 1 uM using RRRFRPASPLRGPPK as substrate at 40 mins in presence of [gamma-33ATP] by scintillation counting based radiometry assay relative to control
[9] = test system: Receptor-type tyrosine-protein kinase FLT3 (Homo sapiens), P36888 [D835Y]; experiment: Inhibition of recombinant human FLT3 D835Y mutant (564 to end residues) assessed as residual activity at 1 uM using EAIYAAPFAKKK as substrate at 40 mins in presence of [gamma-33ATP] by scintillation counting based radiometry assay relative to control
[10] = target: Homeodomain-interacting protein kinase 3 (Homo sapiens) (UniProt Q9H422); experiment: Inhibition of human HIPK3 (161 to 562 residues) assessed as residual activity at 1 uM using myelin basic protein as substrate after 40 mins by [gamma-33ATP] radiometric assay relative to control
[11] = target: Serine/threonine-protein kinase MRCK alpha (Homo sapiens) (UniProt Q5VT25); experiment: Inhibition of recombinant human MRCKalpha (1 to 473 residues) assessed as residual activity at 1 uM using KKRNRTLTV as substrate measured after 40 mins in presence of [gamma33P]ATP by scintillation counting method relative to control
Serine/threonine-protein kinase MRCK alpha (Homo sapiens), sequence (Q5VT25 whole entry, the tested form may be a part): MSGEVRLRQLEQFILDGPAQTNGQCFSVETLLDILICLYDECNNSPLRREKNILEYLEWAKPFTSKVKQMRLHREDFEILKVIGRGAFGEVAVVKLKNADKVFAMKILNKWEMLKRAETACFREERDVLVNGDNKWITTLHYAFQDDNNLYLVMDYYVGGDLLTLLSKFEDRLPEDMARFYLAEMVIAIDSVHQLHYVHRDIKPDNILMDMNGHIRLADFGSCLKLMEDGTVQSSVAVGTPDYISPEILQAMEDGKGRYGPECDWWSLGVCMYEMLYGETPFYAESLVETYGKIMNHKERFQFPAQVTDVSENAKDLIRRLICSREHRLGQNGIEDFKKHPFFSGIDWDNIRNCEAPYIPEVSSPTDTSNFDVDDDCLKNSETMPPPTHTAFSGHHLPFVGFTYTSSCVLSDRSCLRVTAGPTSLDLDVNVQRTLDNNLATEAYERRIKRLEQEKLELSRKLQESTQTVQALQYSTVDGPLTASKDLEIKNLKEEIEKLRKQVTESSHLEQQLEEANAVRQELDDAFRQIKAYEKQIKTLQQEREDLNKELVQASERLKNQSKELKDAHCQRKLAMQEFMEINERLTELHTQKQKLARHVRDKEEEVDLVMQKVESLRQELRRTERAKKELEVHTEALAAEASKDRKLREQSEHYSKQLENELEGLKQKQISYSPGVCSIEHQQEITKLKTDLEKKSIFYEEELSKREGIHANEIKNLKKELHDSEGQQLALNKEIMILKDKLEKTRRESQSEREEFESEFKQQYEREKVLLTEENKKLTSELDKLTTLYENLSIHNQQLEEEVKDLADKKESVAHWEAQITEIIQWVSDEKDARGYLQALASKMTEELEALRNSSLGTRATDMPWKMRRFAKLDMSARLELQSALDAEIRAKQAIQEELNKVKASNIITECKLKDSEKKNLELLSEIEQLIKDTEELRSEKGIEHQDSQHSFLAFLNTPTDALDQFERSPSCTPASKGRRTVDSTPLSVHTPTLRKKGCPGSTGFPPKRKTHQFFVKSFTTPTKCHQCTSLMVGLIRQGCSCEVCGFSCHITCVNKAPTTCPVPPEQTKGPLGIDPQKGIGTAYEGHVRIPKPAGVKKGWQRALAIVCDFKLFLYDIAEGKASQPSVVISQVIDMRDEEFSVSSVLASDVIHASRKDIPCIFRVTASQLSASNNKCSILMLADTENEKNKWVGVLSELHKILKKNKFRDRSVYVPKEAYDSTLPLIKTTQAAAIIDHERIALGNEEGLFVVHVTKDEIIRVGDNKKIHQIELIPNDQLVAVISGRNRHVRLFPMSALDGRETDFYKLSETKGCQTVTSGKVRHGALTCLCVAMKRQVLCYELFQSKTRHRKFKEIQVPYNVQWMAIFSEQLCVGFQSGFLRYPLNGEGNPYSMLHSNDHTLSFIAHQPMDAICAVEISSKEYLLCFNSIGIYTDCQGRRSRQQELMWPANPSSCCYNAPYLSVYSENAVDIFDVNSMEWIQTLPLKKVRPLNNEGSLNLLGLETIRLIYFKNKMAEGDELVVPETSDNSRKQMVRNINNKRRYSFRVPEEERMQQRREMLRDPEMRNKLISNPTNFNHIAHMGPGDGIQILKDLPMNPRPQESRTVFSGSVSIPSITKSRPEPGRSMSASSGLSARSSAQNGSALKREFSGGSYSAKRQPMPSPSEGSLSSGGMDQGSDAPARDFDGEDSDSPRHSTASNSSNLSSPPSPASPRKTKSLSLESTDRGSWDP

[12] = target: Ribosomal protein S6 kinase alpha-4 (Homo sapiens) (UniProt O75676); experiment: Inhibition of recombinant human MSK2 (2 to end residues) assessed as residual activity at 1 uM using GRPRTSSFAEGKK as substrate measured after 40 mins in presence of [gamma33P]ATP by scintillation counting method relative to control
[13] = target: Myosin light chain kinase 2, skeletal/cardiac muscle (Homo sapiens) (UniProt Q9H1R3); experiment: Inhibition of recombinant full-length human MYLK2 at 1 uM using KKLNRTLSFAEPG as substrate measured after 40 mins in presence of [gamma33P]ATP by scintillation counting method relative to control; set-up: scale not given: the % may be the effect or the level left
Myosin light chain kinase 2, skeletal/cardiac muscle (Homo sapiens), sequence (Q9H1R3 whole entry): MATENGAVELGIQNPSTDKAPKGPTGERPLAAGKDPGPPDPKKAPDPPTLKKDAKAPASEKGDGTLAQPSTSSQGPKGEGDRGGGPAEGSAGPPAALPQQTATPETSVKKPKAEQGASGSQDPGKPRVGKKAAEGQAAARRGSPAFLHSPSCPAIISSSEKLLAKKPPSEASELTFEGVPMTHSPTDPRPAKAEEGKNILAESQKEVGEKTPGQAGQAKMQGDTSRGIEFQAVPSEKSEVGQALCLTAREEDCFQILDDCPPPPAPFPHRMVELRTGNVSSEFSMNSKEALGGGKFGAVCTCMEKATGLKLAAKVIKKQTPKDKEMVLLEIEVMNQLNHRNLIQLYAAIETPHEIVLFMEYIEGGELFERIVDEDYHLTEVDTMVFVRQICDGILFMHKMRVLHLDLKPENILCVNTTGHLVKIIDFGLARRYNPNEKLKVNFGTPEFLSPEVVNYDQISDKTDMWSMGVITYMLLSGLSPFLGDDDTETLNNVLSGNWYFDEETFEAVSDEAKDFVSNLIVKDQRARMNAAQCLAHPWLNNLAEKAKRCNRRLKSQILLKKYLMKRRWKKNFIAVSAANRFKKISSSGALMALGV

[14] = target: Serine/threonine-protein kinase pim-2 (Homo sapiens) (UniProt Q9P1W9); experiment: Inhibition of recombinant human Pim2 (2 to end residues) assessed as residual activity at 1 uM using RSRHSSYPAGT as substrate measured after 40 mins in presence of [gamma33P]ATP by scintillation counting method relative to control
Serine/threonine-protein kinase pim-2 (Homo sapiens), sequence (Q9P1W9 whole entry, looked up): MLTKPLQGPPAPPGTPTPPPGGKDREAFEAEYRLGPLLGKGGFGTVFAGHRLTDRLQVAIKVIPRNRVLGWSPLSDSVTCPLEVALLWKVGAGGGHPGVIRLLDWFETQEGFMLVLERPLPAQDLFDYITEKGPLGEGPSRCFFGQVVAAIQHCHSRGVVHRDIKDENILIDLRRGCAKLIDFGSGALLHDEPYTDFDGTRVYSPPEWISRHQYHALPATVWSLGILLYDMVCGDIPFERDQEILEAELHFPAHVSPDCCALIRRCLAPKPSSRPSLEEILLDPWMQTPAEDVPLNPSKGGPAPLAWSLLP

[15] = test system: Proto-oncogene tyrosine-protein kinase receptor Ret (Homo sapiens), P07949 [V804L]; experiment: Inhibition of recombinant human Ret V804L mutant (658 to end residues) assessed as residual activity at 1 uM using KKKSPGEYVNIEFG as substrate measured after 40 mins in presence of [gamma33P]ATP by scintillation counting method relative to control
[16] = target: Serine/threonine-protein kinase Sgk3 (Homo sapiens) (UniProt Q96BR1); experiment: Inhibition of recombinant human SGK3 (119 to end residues) assessed as residual activity at 1 uM using GRPRTSSFAEGKK as substrate measured after 40 mins in presence of [gamma33P]ATP by scintillation counting method relative to control
Serine/threonine-protein kinase Sgk3 (Homo sapiens), sequence (Q96BR1 whole entry): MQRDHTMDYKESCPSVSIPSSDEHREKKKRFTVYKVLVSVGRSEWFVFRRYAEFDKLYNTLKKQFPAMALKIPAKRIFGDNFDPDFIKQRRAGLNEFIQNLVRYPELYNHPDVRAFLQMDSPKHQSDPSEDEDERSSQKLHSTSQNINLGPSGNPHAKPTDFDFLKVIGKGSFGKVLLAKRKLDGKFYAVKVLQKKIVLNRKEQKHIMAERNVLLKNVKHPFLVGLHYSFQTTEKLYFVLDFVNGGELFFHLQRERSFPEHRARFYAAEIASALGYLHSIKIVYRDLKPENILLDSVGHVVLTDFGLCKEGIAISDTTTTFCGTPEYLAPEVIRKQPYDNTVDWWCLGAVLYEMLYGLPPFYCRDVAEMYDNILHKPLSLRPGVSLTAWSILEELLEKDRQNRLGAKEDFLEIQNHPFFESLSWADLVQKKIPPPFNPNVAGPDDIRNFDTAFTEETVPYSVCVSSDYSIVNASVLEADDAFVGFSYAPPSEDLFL

[17] = target: Serine/threonine-protein kinase 33 (Homo sapiens) (UniProt Q9BYT3); experiment: Inhibition of recombinant full-length human STK33 at 1 uM assessed as residual activity at 1 uM using myelin basic protein as substrate measured after 40 mins in presence of [gamma33P]ATP by scintillation counting method relative to control
[18] = target: Testis-specific serine/threonine-protein kinase 4 (Homo sapiens) (UniProt Q6SA08); experiment: Inhibition of recombinant full-length human TSSK4 at 1 uM assessed as residual activity at 1 uM using KKLNRTLSFAEPG as substrate measured after 40 mins in presence of [gamma33P]ATP by scintillation counting method relative to control
[19] = target: Non-receptor tyrosine-protein kinase TYK2 (Homo sapiens) (UniProt P29597); experiment: Inhibition of human TYK2 (875 to end residues) assessed as residual activity at 1 uM using GGMEDIYFEFMGGKKK as substrate measured after 40 mins in presence of [gamma33P]ATP by scintillation counting method relative to control
[20] = target: Serine/threonine-protein kinase VRK1 (Homo sapiens) (UniProt Q99986); experiment: Inhibition of human VRK1 assessed as residual activity at 1 uM by radiometric method relative to control
Serine/threonine-protein kinase VRK1 (Homo sapiens), sequence (Q99986 whole entry, the tested form may be a part): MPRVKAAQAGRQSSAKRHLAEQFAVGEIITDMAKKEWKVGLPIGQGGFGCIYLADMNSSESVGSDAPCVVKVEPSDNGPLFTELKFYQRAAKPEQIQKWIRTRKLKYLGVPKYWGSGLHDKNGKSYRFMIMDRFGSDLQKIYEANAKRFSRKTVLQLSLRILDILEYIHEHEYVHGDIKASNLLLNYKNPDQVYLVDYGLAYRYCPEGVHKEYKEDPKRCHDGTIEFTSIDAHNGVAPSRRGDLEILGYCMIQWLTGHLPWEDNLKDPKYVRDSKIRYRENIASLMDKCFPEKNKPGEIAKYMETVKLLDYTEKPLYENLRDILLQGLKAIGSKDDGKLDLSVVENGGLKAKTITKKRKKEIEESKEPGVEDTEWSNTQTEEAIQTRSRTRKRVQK

[21] = target: Death-associated protein kinase 3 (Homo sapiens) (UniProt O43293); experiment: Inhibition of human ZIPK (1 to 290 residues) assessed as residual activity at 1 uM using KKLNRTLSFAEPG as substrate measured after 40 mins in presence of [gamma33P]ATP by scintillation counting method relative to control

Row | Structure (SMILES) | Activity [1] [%] | Activity [2] [%] | Activity [3] [%] | Activity [4] [%] | Activity [5] [%] | Activity [6] [%] | Activity [7] [%] | Activity [8] [%] | Activity [9] [%] | Activity [10] [%] | Activity [11] [%] | Activity [12] [%] | Activity [13] [%] | Activity [14] [%] | Activity [15] [%] | Activity [16] [%] | Activity [17] [%] | Activity [18] [%] | Activity [19] [%] | Activity [20] [%] | further results
1 | C=CCOC(=O)c1cc(-c2ccc(/C=C3/NC(=S)NC3=O)o2)ccc1Cl | 95 | 93 | 106 | 89 | 87 | 93 | 85 | 16 | 101 | 7 | 98 | 103 | 92 | 10 | 98 | 96 | 96 | 121 | 94 | 99 | Activity [21]: 96%
2 | N=C1NC(=O)/C(=C\c2ccc(-c3cccc([N+](=O)[O-])c3)o2)S1 | 99 | 107 | 103 | 65 | 95 | 82 | 92 | 25 | 84 | 2 | 103 | 97 | 98 | 6 | 97 | 109 | 88 | 102 | 107 | 92 | Activity [21]: 93%
